Experimental data: US20260364080A1, “PYRAZOLO-PYRIMIDINONE COMPOUNDS FOR USE IN METHODS OF INHIBITING WEE1 A KINASE” (Acrivon Therapeutics, Inc., priority 2023, published 2026)
pEC50, pIC50: −log10 of the molar value. Like-named read-outs stand apart in the source and are kept apart here.

Legend:
[1] = biological target: T1, recombinant human Wee1A kinase (Homo sapiens, UniProt P30291); experiment: Wee1A kinase binding assay (LanthaScreen Eu time-resolved FRET)
T1 construct: full length Wee1 kinase was expressed by baculovirus in insect cells; purchased Invitrogen PV3817; host or cells: insect cells (baculovirus)
How it was run: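 Full-length, baculovirus-expressed GST-tagged Wee1A (5 nM) was mixed with 2 nM Eu-anti-GST antibody, 30 nM kinase tracer 178 and compound (1% DMSO). Buffer was 50 mM HEPES pH 7.5, 10 mM MgCl2, 1 mM EGTA, 0.01% Brij-35, incubated 60 min at room temperature. TR-FRET 665/615 nm emission ratios from duplicates were curve-fitted.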

[2] = biological target: T2, Myt1 kinase (recombinant PMYT-1) (Homo sapiens, UniProt Q99640); experiment: Myt1 kinase binding assay (LanthaScreen Eu Kinase Binding Assay)
T2 construct: full length PMYT-1 was expressed by baculovirus in insect cells; purchased Invitrogen A30984; host or cells: insect cells (baculovirus)
T2 sequence (Q99640 1-499): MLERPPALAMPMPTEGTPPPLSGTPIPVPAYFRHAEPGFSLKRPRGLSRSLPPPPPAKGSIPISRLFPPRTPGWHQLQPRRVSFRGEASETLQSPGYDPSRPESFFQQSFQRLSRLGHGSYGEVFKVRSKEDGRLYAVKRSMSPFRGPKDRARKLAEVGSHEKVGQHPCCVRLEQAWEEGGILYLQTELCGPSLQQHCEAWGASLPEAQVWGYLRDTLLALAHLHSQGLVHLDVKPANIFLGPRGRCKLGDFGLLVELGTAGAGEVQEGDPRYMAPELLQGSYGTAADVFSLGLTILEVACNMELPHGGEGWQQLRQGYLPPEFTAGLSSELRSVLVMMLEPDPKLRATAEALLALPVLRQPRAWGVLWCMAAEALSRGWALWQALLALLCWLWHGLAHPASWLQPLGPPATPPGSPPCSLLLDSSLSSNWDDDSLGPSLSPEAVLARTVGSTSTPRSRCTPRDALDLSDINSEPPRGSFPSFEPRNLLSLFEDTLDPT
How it was run: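 The binding affinity of compounds for Myt1 kinase was measured with a LanthaScreen Europium (Eu) Kinase Binding Assay, a time-resolved FRET format in which test compounds compete against a labeled kinase tracer, and the results were expressed as IC50 values describing compound binding to Myt1.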

[3] = biological target: T3, Wee1A kinase (CDK1 Tyr15 phosphorylation in ACHN renal cell carcinoma cells) (Homo sapiens, UniProt P30291); experiment: High-content imaging of pCdk1 Y15, Wee1A kinase target engagement in ACHN cells; format: cell-based
T3 construct: pCDK1 Tyr15 immunofluorescence read-out
How it was run: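 ACHN cells exposed to compound for 4 h over 7–5,000 nM or 0.3–200 nM, then fixed and immunostained for pCDK1 Y15 with DAPI nuclear counterstain. The percentage of pCdk1 Y15 nucleus-positive cells relative to DMSO control was imaged per well; EC50 from dose-response curves.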

[4] = 30 nM tracer 178, 5 nM Wee1A kinase, 2 nM Eu-labeled antibody, 60 minutes at room temperature, read-out: Wee1A kinase Binding IC50
[5] = 3 nM tracer 178, 2.5 nM PMYT-1, 1 nM Eu-labeled antibody, read-out: Myt1 kinase Binding IC50
[6] = 4 h treatment, nuclear positivity for pCdk1 Y15 vs DMSO control, read-out: CDK1 Tyr15 Phosphorylation EC50
[7] = Myt1 kinase Binding IC50, 3 nM tracer 178, 2.5 nM PMYT-1, 1 nM Eu-labeled antibody
[8] = read-out: CDK1 Tyr15 Phosphorylation EC50, 4 h treatment, nuclear positivity for pCdk1 Y15 vs DMSO control

T3 sequence (P30291 whole entry): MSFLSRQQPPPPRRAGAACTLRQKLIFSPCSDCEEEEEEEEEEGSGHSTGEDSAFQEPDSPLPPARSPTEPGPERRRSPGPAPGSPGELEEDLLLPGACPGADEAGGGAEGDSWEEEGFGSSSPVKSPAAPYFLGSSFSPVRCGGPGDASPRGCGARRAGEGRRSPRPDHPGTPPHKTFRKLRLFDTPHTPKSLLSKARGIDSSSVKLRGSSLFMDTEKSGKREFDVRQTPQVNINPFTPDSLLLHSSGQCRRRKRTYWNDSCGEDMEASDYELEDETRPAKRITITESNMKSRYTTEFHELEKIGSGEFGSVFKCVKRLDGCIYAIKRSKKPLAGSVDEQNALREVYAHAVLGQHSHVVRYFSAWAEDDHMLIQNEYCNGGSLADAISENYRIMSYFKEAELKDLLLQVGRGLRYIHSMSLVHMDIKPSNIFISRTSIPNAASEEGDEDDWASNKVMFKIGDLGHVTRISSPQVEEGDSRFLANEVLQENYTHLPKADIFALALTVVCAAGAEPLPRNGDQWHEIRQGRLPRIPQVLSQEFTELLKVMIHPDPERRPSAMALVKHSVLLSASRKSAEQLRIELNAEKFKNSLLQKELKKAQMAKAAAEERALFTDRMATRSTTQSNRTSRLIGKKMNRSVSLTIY
T1 sequence (P30291 whole entry): as above

pIC50 [1, 4]	pIC50 [2, 5]	pEC50 [3, 6]	pIC50 [1]	pIC50 [2, 7]	pEC50 [3, 8]	Compound
> 8.00	7.00 to 7.70	6.30 to 7.00	–	–	–	C=CCn1c(=O)c2cnc(Nc3ccc(OCCF)cc3)nc2n1-c1ccnc(OC2CCNCC2)n1 [Compound 391, 2-allyl-6-((4-(2-fluoroethoxy)phenyl)amino)-1-(2-(piperidin-4-yloxy)pyrimidin-4-yl)-1,2-dihydro-3H-pyrazolo[3,4-d]pyrimidin-3-one]
> 8.00	6.30 to 7.00	6.00 to 6.30	–	–	–	C=CCn1c(=O)c2cnc(Nc3ccc(OC(F)(F)F)cc3)nc2n1-c1cccc(NC2CCNCC2)n1 [Compound 135, 1-{6-[(piperidin-4-yl)amino]pyridin-2-yl}-2-(prop-2-en-1-yl)-6-{[4-(trifluoromethoxy)phenyl]amino}-1H,2H,3H-pyrazolo[3,4-d]pyrimidin-3-one]
–	–	–	> 8.00	< 6.30	6.00 to 6.30	C=CCn1c(=O)c2cnc(Nc3cnn(C)c3)nc2n1-c1cccc(O[C@@H]2C[C@H]3CC[C@@H](C2)N3C)n1 [Compound 189, 6-[(1-methyl-1H-pyrazol-4-yl)amino]-1-(6-{[(cis)-8-methyl-8-azabicyclo[3.2.1]octan-3-yl]oxy}pyridin-2-yl)-2-(prop-2-en-1-yl)-1H,2H,3H-pyrazolo[3,4-d]pyrimidin-3-one]
> 8.00	6.30 to 7.00	6.30 to 7.00	–	–	–	C=CCn1c(=O)c2cnc(Nc3ccc(OCC(F)(F)F)c(C)c3)nc2n1-c1cccc(NC2CCNCC2)n1 [Compound 178, 2-allyl-1-[6-(4-piperidylamino)-2-pyridyl]-6-[4-(2,2,2-trifluoroethoxy)-3-toluidino]-1,2-dihydro-3H-1,2,5,7-tetraazainden-3-one]
> 8.00	7.00 to 7.70	6.30 to 7.00	–	–	–	C=CCn1c(=O)c2cnc(Nc3cncc(OC)c3)nc2n1-c1cccc(OC2CCN(C)CC2)n1 [Compound 342, 6-[(5-methoxypyridin-3-yl)amino]-1-{6-[(1-methylpiperidin-4-yl)oxy]pyridin-2-yl}-2-(prop-2-en-1-yl)-1H,2H,3H-pyrazolo[3,4-d]pyrimidin-3-one]
> 8.00	7.00 to 7.70	> 7.00	–	–	–	C=CCn1c(=O)c2cnc(Nc3ccc4nn(CC)cc4c3)nc2n1-c1cccc(OC2CCNCC2)n1 [Compound 276]
> 8.00	7.00 to 7.70	< 6.00	–	–	–	C=CCn1c(=O)c2cnc(Nc3ccc4c(cnn4C)c3)nc2n1-c1cccc(N[C@H]2CCNC2)n1 [Compound 107, 1-{6-[(S)-3-pyrrolidinylamino]-2-pyridyl}-2-allyl-6-(1-methyl-1H-indazol-5-ylamino)-1,2-dihydro-3H-1,2,5,7-tetraazainden-3-one]
> 8.00	> 7.70	> 7.00	–	–	–	C=CCn1c(=O)c2cnc(Nc3ccc4c(c3)nnn4C(C)C)nc2n1-c1cccc(OC2CCN(C)CC2)n1 [Compound 409, 2-allyl-6-((1-isopropyl-1H-benzo[d][1,2,3]triazol-5-yl)amino)-1-(6-((1-methylpiperidin-4-yl)oxy)pyridin-2-yl)-1,2-dihydro-3H-pyrazolo[3,4-d]pyrimidin-3-one]
> 8.00	6.30 to 7.00	6.30 to 7.00	–	–	–	C=CCn1c(=O)c2cnc(Nc3ccc4c(cnn4C)c3)nc2n1-c1ccnc(OC2CCNCC2)n1 [Compound 350, 2-allyl-6-((1-methyl-1H-indazol-5-yl)amino)-1-(2-(piperidin-4-yloxy)pyrimidin-4-yl)-1,2-dihydro-3H-pyrazolo[3,4-d]pyrimidin-3-one]
> 8.00	< 6.30	< 6.00	–	–	–	C=CCn1c(=O)c2cnc(Nc3ccc(Cl)cc3)nc2n1-c1cccc(N(C)[C@@H]2CCCNC2)n1 [Compound 171, 1-{6-[N—(R)-3-piperidyl-N-methylamino]-2-pyridyl}-2-allyl-6-(p-chlorophenylamino)-1,2-dihydro-3H-1,2,5,7-tetraazainden-3-one]
> 8.00	6.30 to 7.00	6.30 to 7.00	–	–	–	CCn1c(=S)c2cnc(Nc3ccc4c(cnn4C)c3)nc2n1-c1cccc(OC2CCN(C)CC2)n1 [Compound 362, 2-ethyl-6-[(1-methyl-1H-indazol-5-yl)amino]-1-{6-[(1-methylpiperidin-4-yl)oxy]pyridin-2-yl}-1H,2H,3H-pyrazolo[3,4-d]pyrimidine-3-thione]
> 8.00	< 6.30	< 6.00	–	–	–	C=CCn1c(=O)c2cnc(Nc3cnn(CCC)c3)nc2n1-c1cccc(OC2CCNCC2)n1 [Compound 179, 2-allyl-1-[6-(4-piperidyloxy)-2-pyridyl]-6-(1-propyl-4-pyrazolylamino)-1,2-dihydro-3H-1,2,5,7-tetraazainden-3-one]
> 8.00	7.00 to 7.70	> 7.00	–	–	–	C=CCn1c(=O)c2cnc(Nc3ccc4c(cnn4C)c3)nc2n1-c1cccc(OC2CCNC(C)C2)n1 [Compound 404, rel-2-allyl-6-((1-methyl-1H-indazol-5-yl)amino)-1-(6-(((2R,4R)-2-methylpiperidin-4-yl)oxy)pyridin-2-yl)-1,2-dihydro-3H-pyrazolo[3,4-d]pyrimidin-3-one]
–	–	–	> 8.00	< 6.30	6.00 to 6.30	C=CCn1c(=O)c2cnc(Nc3ccc(Cl)cc3)nc2n1-c1cccc(N(CCC)C2CCN(C)CC2)n1 [Compound 149, 6-[(4-chlorophenyl)amino]-1-{6-[(1-methylpiperidin-4-yl)(propyl)amino]pyridin-2-yl}-2-(prop-2-en-1-yl)-1H,2H,3H-pyrazolo[3,4-d]pyrimidin-3-one]
–	–	–	> 8.00	< 6.30	< 6.00	C=CCn1c(=O)c2cnc(Nc3ccc(Cl)cc3)nc2n1-c1cccc(N(CCC)C2CCNCC2)n1 [Compound 147]
–	–	–	> 8.00	< 6.30	< 6.00	C=CCn1c(=O)c2cnc(Nc3cnn(C(C)C)c3)nc2n1-c1cccc(N(C)C2CCNCC2)n1 [Compound 169, 1-{6-[methyl(piperidin-4-yl)amino]pyridin-2-yl}-2-(prop-2-en-1-yl)-6-{[1-(propan-2-yl)-1H-pyrazol-4-yl]amino}-1H,2H,3H-pyrazolo[3,4-d]pyrimidin-3-one]
–	–	–	> 8.00	< 6.30	6.30 to 7.00	C=CCn1c(=O)c2cnc(Nc3cnn(C)c3)nc2n1-c1cccc(N(C)C2CCN(C)CC2)n1 [Compound 184, 1-{6-[methyl(1-methylpiperidin-4-yl)amino]pyridin-2-yl}-6-[(1-methyl-1H-pyrazol-4-yl)amino]-2-(prop-2-en-1-yl)-1H,2H,3H-pyrazolo[3,4-d]pyrimidin-3-one]
> 8.00	6.30 to 7.00	6.30 to 7.00	–	–	–	C=CCn1c(=O)c2cnc(Nc3ccc(OC(F)(F)F)c(C)c3)nc2n1-c1cccc(NC2CCNCC2)n1 [Compound 136, 6-{[3-methyl-4-(trifluoromethoxy)phenyl]amino}-1-{6-[(piperidin-4-yl)amino]pyridin-2-yl}-2-(prop-2-en-1-yl)-1H,2H,3H-pyrazolo[3,4-d]pyrimidin-3-one]
> 8.00	7.00 to 7.70	6.30 to 7.00	–	–	–	C=CCn1c(=O)c2cnc(Nc3cccc(-c4cccnc4)c3)nc2n1-c1cccc(OC2CCN(C)CC2)n1 [Compound 368, 2-allyl-1-[6-(1-methyl-4-piperidyloxy)-2-pyridyl]-6-[m-(3-pyridyl)phenylamino]-1,2-dihydro-3H-1,2,5,7-tetraazainden-3-one]
> 8.00	> 7.70	6.30 to 7.00	–	–	–	C=CCn1c(=O)c2cnc(Nc3cccc(Br)c3)nc2n1-c1cccc(OC2CCN(C)CC2)n1 [Compound 269, 2-allyl-6-(m-bromophenylamino)-1-[6-(1-methyl-4-piperidyloxy)-2-pyridyl]-1,2-dihydro-3H-1,2,5,7-tetraazainden-3-one]
> 8.00	6.30 to 7.00	> 7.00	–	–	–	C=CCn1c(=O)c2cnc(Nc3ccc4c(cnn4C)c3)nc2n1-c1cccc(O[C@H]2CCCNCC2)n1 (single isomer, unassigned) [Compound 358]
